± gives the expanded uncertainty stated by the source.
Test: refractive index (Na D-line) (dimensionless)
Conditions: 298.15 K; 101.33 kPa; Liquid; Standard Abbe refractometry

| refractive index | Compound |
| --- | --- |
| 1.40925 ± 0.00037 | CCCCn1cc[n+](C)c1.F[P-](F)(F)(F)(F)F [1-butyl-3-methylimidazolium hexafluorophosphate] |
| 1.39686 ± 0.00033 | CCCCO [butan-1-ol] |

From the NIST ThermoML archive (doi:10.1021/je060260h)
